Experimental data from a melting point compilation (Tetko et al.; mined from patent text by program, amines drawn as free bases though some values may be those of a salt).

| Structure (SMILES) | melting point [°C] |
| --- | --- |
| CC(C)c1ccc2ncc(C(=O)O)c(O)c2c1 | 298 |
| CC(C(=O)NC(=O)OCC(F)(F)F)(c1ccccc1)c1ccccc1 | 143 to 145 |
| CCCc1c(OCc2ccccc2)ccc2c1OC(CCC(=O)O)(CCC(=O)O)CC2=O | 202 to 205 |
| CC1(c2ccccc2)OCC(OCc2ccccc2)CO1 (stereo not given) | 87 to 88 |
| Cc1c(C)c2c(c(C)c1C=O)CC(C)(C)C2 | 61 to 62 |
| CCC=Cc1ncc(/C=C(\Cc2cccs2)C(=O)O)n1Cc1ccccc1Cl | 224 to 226 |
| O=C(OCc1ccccc1)c1ccc(Br)c(OCc2ccccc2)c1 | 80.5 to 81.5 |
| COc1ccc(C(=O)C23CCCCC2C(=O)O3)cc1 (stereo not given) | 77.5 to 78.5 |
| CCCc1c(OCCCCCOc2ccc(CCC(=O)O)cc2CCC(=O)O)ccc2c1OCCC2=O | 108 to 109 |
| CCCCCCCCCCCCCCCCN1C(=O)C2=C(c3cccs3)N(CCCCCCCCCCCCCCCC)C(=O)C2=C1c1cccs1 | 124 to 125 |
| CC1(C)C(C(=O)O)C12C=CC=C2 (stereo not given) | 126 to 129 |
| NC(=O)CCCCn1ccc([N+](=O)[O-])n1 | 129 to 131 |
| C#Cc1ccc2ccc(C#C)cc2c1 | 124 to 126 |
| COC(=O)CCCCc1cc2nc(Cl)ccc2n1S(=O)(=O)c1ccccc1 | 73 |
| CCCCCCCCCCCCCCCCSC(N)C(CN)C(=O)OC(C)(C)C (stereo not given) | 46 to 47 |
| CC(C)(C)NC(=O)[C@@H]1C[C@H](Cl)CN1C(=O)[C@@H](O)[C@H](Cc1ccccc1)NC(=O)[C@H](CCS(C)(=O)=O)NC(=O)OCc1ccccc1 | 99 to 103 |
| O=C(Cn1cncn1)c1ccc(Cl)cc1 | 151 to 153 |
| CCOC(=O)/C=C/c1cc(C(C)C)c(OC(C)=O)c2c(C)cccc12 | 122 to 123 |
| O=C(O)C1(c2ccc3c(c2)CCCC3)CCC1 | 123 to 126 |
| CCCOCCOC(=O)C1=C(C)NC(C)=C(P(=O)(OC(C)C)OC(C)C)C1c1cccc([N+](=O)[O-])c1 (stereo not given) | 125 to 126 |
| C=CCSc1nnc(C(C)(C)C)[nH]1 | 127 to 130 |
| COc1cc(NC(=O)c2ccccc2Cl)ccc1C(=O)N1CCCC(OCCNC(N)=O)c2cc(Cl)ccc21 (stereo not given) | 206 to 207 |
| COc1cc(OC)c(/C=C/S(=O)(=O)Cc2ccc(OC)c(N)c2)c(OC)c1 | 148 to 150 |
| O=C1CCC2(CC3CCC2CC3)C(=O)N1 (stereo not given) | 183 to 184 |
| CC(C)C[C@H](NC(=O)[C@H](Cc1c[nH]c2ccccc12)NC(=O)OC(C)(C)C)C(=O)O | 109 to 111 |
| CNS(=O)(=O)c1cccnc1S(=O)(=O)NC(=O)Nc1nc(OC)cc(OC)n1 | 147 to 148 |

| Structure (SMILES) | melting point [°C] |
| --- | --- |
| COc1ccc(OC)c2c1CCC(O)C2 (stereo not given) | 128 to 129 |
| CC(=O)c1c2c(cc3c1CCC3)CCC2 | 69.1 to 76.1 |
| NC(=O)C(Cc1ccccc1)=NNc1ccc(C(O)(C(F)(F)F)C(F)(F)F)cc1 | 211 to 213 |
| CCOC(=O)C1=NN(c2ccc([N+](=O)[O-])cc2)C2(N3CCCC3)CCCC12 (stereo not given) | 118 |
| CC(C)c1cc(O)cc2c1C(=O)N(CBr)S2(=O)=O | 167 to 169 |
| O=C(NCCN1CCCC1)c1ccc(OCc2ccc(-c3ccccc3)cc2)nc1 | 153 to 157 |
| c1cn2nc(N3CCNCC3)ccc2n1 | 122 to 123 |
| OC12N=C(c3ccccc3)SC1(Br)Cc1cc(Cl)ccc12 (stereo not given) | 148 |
| O=C(O)C(=O)c1ccc(OCCOc2ccc(Cl)cc2)cc1 | 121 to 122 |
| O=C(Cc1c[nH]cn1)NC(P(=O)(O)O)P(=O)(O)O | 247 to 250 |
| CCCCc1nc2c(N)nc(C)c(C)c2n1CCCCCS(N)(=O)=O | 130 |
| O=C1C(=Cc2ccccc2N2CCNCC2)SCCN1c1ccc(Cl)c(Cl)c1 | 154 to 155 |
| Cc1c(C(=O)Cl)cccc1S(=O)(=O)CCCl | 67 to 70 |
| C=C=CP1(=O)OCC(C)(C)CO1 | 128 to 133 |
| N#CC(OC(=O)CC=Cc1ccccc1)c1ccc2ccccc2c1 (stereo not given) | 74 to 75 |
| O=S1(=O)NCCOc2ccc(Br)cc21 | 129 |
| C=Cc1cc2ccc(-c3ccc(C(=O)OC)cc3)cc2cc1C12CC3CC(CC(C3)C1)C2 | 221 to 222 |
| CCN(CC)CCOC(=O)N1CCC(NC(=O)c2ccccc2)CC1 | 78 to 82 |
| COc1ccc(-c2cc(=O)c3c(O)cc(OCC4=COC(C)(C)O4)cc3o2)cc1OCC1=COC(C)(C)O1 | 155 to 156 |
| CC(=O)CC(=O)OCCCN1C(=O)c2ccccc2C1=O | 67 to 71 |
| O=C(O)C(O)(c1cccs1)c1cccs1 | 84 |
| CCCCCCCCC#CCC#CCC#CCSCC(=O)NCC | 59 |
| CC(Cc1c[nH]c2ccccc12)(NC(=O)OC1C2CC3CC(C2)CC1C3)C(=O)NCC(NC(=O)C1CC1C(=O)O)c1ccccc1 (stereo not given) | 138 to 142 |
| Cc1ccc(C(=O)N2CCC3(CC2)OCCO3)cc1 | 59 to 61 |
| CN1Cc2c(C(=O)OCCO)ncn2-c2ccc(F)cc2C1=O | 202 to 204 |
| NC(CCCBr)C(=O)c1ccccc1 (stereo not given) | 74 to 76 |

Now from value to compound:

| melting point [°C] | Structure (SMILES) |
| --- | --- |
| 88.4 to 91.6 | Cc1[nH]c(CN(C)C)c(C)c1-c1ccnc(Nc2ccc(F)cc2)n1 |
| > 260 | O=C(c1ccc(Cl)cc1)c1ccc2[nH]c(=O)cc(C(=O)O)c2c1 |
| 75 to 80 | Cc1nnc(SCc2ccc(C(=O)N(C)C)cc2)s1 |
| 48 to 50 | Cc1cccc(-c2cc(Cl)cc3c2OC(CN=[N+]=[N-])C3)c1 (stereo not given) |
| 138 to 139 | CC(C)(CNc1ccnc2cc(Cl)ccc12)NCc1ccc(Cl)cc1Cl |
| 214 to 216 | Oc1ccc(-c2nnc(CSCCOc3ccccc3)n2-c2ccccc2)cc1 |
| 120 to 123 | COc1ccc(N)c(C2Cc3ccccc3N2)c1 (stereo not given) |
| 229 to 230 | Cc1cc(CO)ccc1NC(=O)N1CCN(c2ccc(NC(=O)Nc3ccccc3F)cc2)CC1 |
| 195 to 197 | CC(=O)OCC(=O)N1C(C(N)=O)Cc2c([nH]c3ccccc23)C1c1ccccc1 (stereo not given) |
| 165 to 167 | COc1ccc(C(=O)c2[nH]c(=O)[nH]c2CN(C)C)cc1 |
| 208 to 209 | Cc1ccc2c(c1)N=C(Cl)c1cscc1O2 |
| 215 | COc1ccc2ccc(N3C(=O)C4=C(SCC(OC)CS4)C3OC(=O)N3CCN(C)CC3)nc2n1 (stereo not given) |
| 202 to 212 | CCCN1CCC(Cc2ccc3c(c2)c(Cc2ccc(C(=O)O)cc2OC)cn3C)C1=O (stereo not given) |
| 78 to 80 | CN(C)CCCC(c1ccncc1)S(=O)(=O)c1ccc(Cl)cc1 (stereo not given) |
| 83 to 84 | COc1ccc2[nH]ccc2c1OCc1ccccc1 |
| 181 | Cc1cc2c(cc1C(F)(F)F)NC(=O)CC(c1cccc(-n3nncc3CNC3CC3)c1)=N2 |
| 148 to 149 | Cc1ccc(N2CCN(Cc3ccc4c(c3)NCCN4)CC2)cc1C |
| 168 | CCOc1ccc2c(c1)n(C1CCOCC1)c(=O)n2Cc1ccc(NC(=O)N(CC)CC)cc1OC |
| 216 to 218 | Cc1ccc(Cc2cnc(NCCCN(c3ccccc3)c3ccccn3)[nH]c2=O)cn1 |
| 267 to 268 | COc1ccc(-c2nc(C(=O)N(C)C)c3c4ccc(Cl)cc4n(C)c3n2)cn1 |
| 137 to 138 | CC(=O)c1c(-c2ccncc2)sc(-c2ccncc2)c1C |
| 305 to 309 | CC(C)(C)C1=CC(=Nc2ccc(C(=O)O)cc2)C=C(C(C)(C)C)C1=O |
| 104 to 107 | CCCc1c(OCCCOc2ccc3ccc(OCC(=O)OC)cc3c2C(C)=O)ccc(C(C)=O)c1O |
| 230 to 231 | CC(C)COc1ccccc1-c1ncc(C(N)=O)c(=O)[nH]1 |

| melting point [°C] | Structure (SMILES) |
| --- | --- |
| 317 to 322 | CCc1nc(=O)c(CCC(=O)O)c(C)n1Cc1ccc(-c2ccccc2-c2nnn[nH]2)cc1 |
| 266 to 267 | COc1ccc2c(=O)[nH]c(-c3ccc(OCCO)c(-c4ccc(S(C)=O)cc4)n3)nc2c1 (stereo not given) |
| 91 to 93 | Cn1nc(-c2ccc(OC(F)(F)F)cc2)cc1CO |
| 187 to 190 | C#Cc1ccnc(-c2cc([N+](=O)[O-])c(-c3ccccc3)cc2N)c1 |
| 213 to 216 | COc1ccc(Nc2nc(=O)cc(N)n2-c2ccccc2)cc1 |
| 148 to 149 | COc1cccc(CC(=O)O)c1OCCCc1cn(-c2ccc(C(C)=O)cn2)nc1C(C)C |
| 214 to 216 | Cn1cnc(-c2ccccc2)c1-c1nn(-c2cccc(C(F)(F)F)c2)ccc1=O |
| 235 to 237 | CCOC(=O)c1cc2c3c(c(-c4ccccc4Cl)cc2n1CCCOC)C(=O)NC3=O |
| 119 to 133 | CC(C)(C)OC(=O)N(Cc1ccc(C2CCCCC2)cc1)c1nc(Oc2ccc(F)cc2)c2ncn(CC(=O)O)c2n1 |
| 206 to 208 | CN1Cc2c(c3cc(CCCN4CCN(c5nsc6ccccc56)CC4)ccc3[nH]c2=O)C1 |
| 250 to 252 | O=C1CCC(N2Cc3c(CNC(=O)Nc4cccc(Cl)c4)cccc3C2=O)C(=O)N1 (stereo not given) |
| 88 to 97 | CC1(C)c2ccc(C(O)CN3CCN(c4nsc5ccccc45)CC3)cc2C(C)(C)C1O (stereo not given) |
| 165 to 167 | CN(C)c1ccc2c(c1)NCC2 |
| 151 to 152 | CCOC(=O)N1CCC(n2nc(Cc3ccc(F)cc3)c3ccccc3c2=O)CC1 |
| 240 to 242 | OC1CN(Cc2nc(-c3ccc4c(c3)Nc3ccccc3S4)cs2)C1 |
| 249 to 251 | O=C(Nc1cccc2c(Sc3ncc[nH]3)c(Br)cnc12)c1c(Cl)cccc1Cl |
| 59 to 63 | CNC(=C[N+](=O)[O-])NCCCCOc1cccc(CCN(C)C)c1 |
| 74 | CCCCOc1ccc(-c2nc(Cl)c(C=O)[nH]2)cc1 |
| 129 to 132 | Cn1nc(-c2ccc(F)cc2)c(-c2ccncc2)c1CCCc1ccc([N+](=O)[O-])cc1 |
| 260 to 262 | Cn1cc2c(C3C(=O)Nc4ccc(Br)cc43)nc(NCCN)nc2n1 (stereo not given) |
| 133 to 135 | O=C(Nc1nc2ccc(OCc3c(Cl)cccc3Cl)cc2[nH]1)C1CC1 |
| 238 to 240 | CC1(C)C=C(c2ccccn2)c2cc(C(=O)O)ccc2O1 |
| 170 | Cc1nc2c(O)c(C(=O)[C@H](O)[C@@H](O)c3ccccc3)ccc2n1C |
| 119 to 120 | CCOC(=O)c1cccc(Cn2cnc3cnccc32)c1 |
